Assay results reported in patent publication US9908912B2, “Triclosan derivatives and uses thereof” (priority 2012, dated 2018).
In brackets after ≈: the same amount, converted by molar mass.

Assays:
[1] = tested on: Hafnia alvei ATCC 13337; assay: MIC in Nutrient Broth No. 2; assay type: cell-based; details: Nutrient Broth No. 2
Protocol: (§1) Bacteria species as indicated in Table 1 were incubated for approximately 24 hours at 37° C.
(§2) The tests were repeated with the addition of inducers. Methyl glycoside was the main inducer used, but other suitable inducers include isopropyl-β-D-thiogalactopyranoside, p-nitrophenyl-α-L-arabinopyranoside and p-nitrophenyl-β-D-xylopyranoside. Concentration of inducer in all cases was 100 μg/ml.

[2] = tested on: Ps. Aeruginosa ATCC 27853; assay: MIC in Nutrient Broth No. 2; assay type: cell-based; details: Nutrient Broth No. 2
Protocol: as §1, §2

[3] = tested on: Enterococcus faecium ATCC 19434; assay: MIC in Nutrient Broth No. 2; assay type: cell-based; details: Nutrient Broth No. 2
Protocol: as §1, §2

[4] = tested on: Proteus vulgaris OCC 195; assay: MIC in Nutrient Broth No. 2; assay type: cell-based; details: Nutrient Broth No. 2
Protocol: as §1, §2

[5] = tested on: Citrobacter freundii OCC 851; assay: MIC in Nutrient Broth No. 2; assay type: cell-based; details: Nutrient Broth No. 2
Protocol: as §1, §2

[6] = tested on: Salmonella; assay: MIC in Nutrient Broth No. 2; assay type: cell-based; details: 11 strains, Nutrient Broth No. 2
Protocol: as §1, §2

[7] = tested on: Bacillus subtilis NCTC 10073; assay: MIC in Nutrient Broth No. 2; assay type: cell-based; details: Nutrient Broth No. 2
Protocol: as §1, §2

[8] = tested on: Aeromonas hydrophila OCC 778; assay: MIC in Nutrient Broth No. 2; assay type: cell-based; details: Nutrient Broth No. 2
Protocol: as §1, §2

[9] = tested on: Enterococcus faecalis ATCC 29212; assay: MIC in Nutrient Broth No. 2; assay type: cell-based; details: Nutrient Broth No. 2
Protocol: as §1, §2

[10] = tested on: Enterobacter aerogenes ATCC 13048; assay: MIC in Nutrient Broth No. 2; assay type: cell-based; details: Nutrient Broth No. 2
Protocol: as §1, §2

[11] = tested on: Proteus mirabilis ATCC 12453; assay: MIC in Nutrient Broth No. 2; assay type: cell-based; details: Nutrient Broth No. 2
Protocol: as §1, §2

[12] = tested on: Escherichia coli; assay: MIC in Nutrient Broth No. 2; assay type: cell-based; details: 8 strains, Nutrient Broth No. 2
Protocol: as §1, §2

[13] = tested on: Serratia marcescens OCC 217; assay: MIC in Nutrient Broth No. 2; assay type: cell-based; details: Nutrient Broth No. 2
Protocol: as §1, §2

[14] = tested on: Bacillus cereus ATCC 14579; assay: MIC in Nutrient Broth No. 2; assay type: cell-based; details: Nutrient Broth No. 2
Protocol: as §1, §2

[15] = tested on: C. freundii; assay: MIC in Nutrient Agar; assay type: cell-based, Citrobacter freundii; details: Nutrient Agar containing 0.1 μg/ml of inducer; 37° C., 24 hours
Protocol: (§3) The triclosan-glycosides were added to Nutrient Agar (Oxoid CM0003; Thermofisher Scientific) and organisms were transferred onto the plates surface using a multi-point inoculation device (Oxoid Cathra, Thermofisher Scientific). The latter is essentially a metal plate containing a number of needles. Each needle tip (usually 36 per plate) dips into an organism suspension (in phosphate buffered saline; PBS) and the needles are then moved over the agar plate and lowered onto its surface. In this way the growth of colonies of up to 36 different organisms can be observed on one plate.
(§4) Nutrient Agar No. 2 was prepared according to the manufacturers instructions, autoclaved and cooled to 50° C. Test compounds were then added as filter sterilised solutions (50:50 deionised water:ethanol), to give final concentrations from 256 μg/ml to 0 μg/ml in doubling dilutions. […] The mixtures were swirled then four plates (25 ml molten agar) were poured for each concentration. Plates were dried in a laminar flow cabinet then inoculated with overnight cultures of organisms that had been decimally diluted twice in sterile saline solution (approximately 10^7 cfu/ml) using a multi-point inoculator. Plates were then incubated at 37° C. for 24 hours. MICs were determined as the concentration at which no growth was observed.

[16] = tested on: Str. viridans; assay: MIC in Nutrient Agar; assay type: cell-based, Streptococcus viridans; details: Nutrient Agar containing 0.1 μg/ml of inducer; 37° C., 24 hours
Protocol: as §3, §4

[17] = tested on: E. coli; assay: MIC in Nutrient Agar; assay type: cell-based, Escherichia coli; details: 8 strains; Nutrient Agar containing 0.1 μg/ml of inducer; 37° C., 24 hours
Protocol: as §3, §4

[18] = tested on: E. hermanii; assay: MIC in Nutrient Agar; assay type: cell-based, Escherichia hermanii; details: Nutrient Agar containing 0.1 μg/ml of inducer; 37° C., 24 hours
Protocol: as §3, §4

[19] = tested on: Bacteria species as indicated in Table 1; assay: MIC in Nutrient Broth No. 2 (over organisms of Table 1); assay type: cell-based; details: all strains of Citrobacter freundii, Enterobacter cloacae, Escherichia coli, Escherichia hermanii, Hafnia alvei, Klebsiella, Proteus, Salmonella, Staphylococcus
Protocol: as §1, §2

[20] = tested on: S. saprophyticus; assay: MIC in Nutrient Agar; assay type: cell-based, Staphylococcus saprophyticus; details: Nutrient Agar containing 0.1 μg/ml of inducer; 37° C., 24 hours
Protocol: as §3, §4

Question: With `OC[C@H]1O[C@H](Oc2cc(Cl)ccc2Oc2ccc(Cl)cc2Cl)[C@@H](O)[C@@H](O)[C@@H]1O` [α-D-Mannoside, triclosan-α-D-mannopyranoside] as the molecule, how does the MIC ([1]; with inducer 100 μg/ml) read?
Answer: 4 µg/mL (≈ 8.86 µM)

Question: What about the MIC ([1]; without inducer) of the same molecule?
Answer: 4 µg/mL (≈ 8.86 µM)

Question: What about the MIC ([2]; with inducer 100 μg/ml) of the same molecule?
Answer: >256 µg/mL

Question: And the MIC ([2]; without inducer)?
Answer: >256 µg/mL

Question: And the MIC ([3]; with inducer 100 μg/ml)?
Answer: 256 µg/mL (≈ 567 µM)

Question: And the MIC ([3]; without inducer)?
Answer: 256 µg/mL (≈ 567 µM)

Question: What about the MIC ([4]; with inducer 100 μg/ml) of the same molecule?
Answer: 32 µg/mL (≈ 70.8 µM)

Question: What about the MIC ([4]; without inducer) of the same molecule?
Answer: 32 µg/mL (≈ 70.8 µM)

Question: What about the MIC ([5]; with inducer 100 μg/ml) of the same molecule?
Answer: 64 µg/mL (≈ 142 µM)

Question: And the MIC ([5]; without inducer)?
Answer: 64 µg/mL (≈ 142 µM)

Question: What about the MIC ([6]; with inducer 100 μg/ml) of the same molecule?
Answer: 8 to 32 µg/mL

Question: What about the MIC ([6]; without inducer) of the same molecule?
Answer: 16 to 64 µg/mL

Question: What about the MIC ([7]; with inducer 100 μg/ml) of the same molecule?
Answer: 256 µg/mL (≈ 567 µM)

Question: What about the MIC ([7]; without inducer) of the same molecule?
Answer: 128 µg/mL (≈ 283 µM)

Question: And the MIC ([8]; with inducer 100 μg/ml)?
Answer: >256 µg/mL

Question: What about the MIC ([8]; without inducer) of the same molecule?
Answer: >256 µg/mL

Question: What about the MIC ([9]; with inducer 100 μg/ml) of the same molecule?
Answer: 256 µg/mL (≈ 567 µM)

Question: What about the MIC ([9]; without inducer) of the same molecule?
Answer: 256 µg/mL (≈ 567 µM)

Question: And the MIC ([10]; with inducer 100 μg/ml)?
Answer: 32 µg/mL (≈ 70.8 µM)

Question: What about the MIC ([10]; without inducer) of the same molecule?
Answer: 32 µg/mL (≈ 70.8 µM)

Question: What about the MIC ([11]; with inducer 100 μg/ml) of the same molecule?
Answer: 8 µg/mL (≈ 17.7 µM)

Question: What about the MIC ([11]; without inducer) of the same molecule?
Answer: 16 µg/mL (≈ 35.4 µM)

Question: What about the MIC ([12]; with inducer 100 μg/ml) of the same molecule?
Answer: 4 to 32 µg/mL

Question: And the MIC ([12]; without inducer)?
Answer: 4 to 64 µg/mL

Question: And the MIC ([13]; with inducer 100 μg/ml)?
Answer: >256 µg/mL

Question: And the MIC ([13]; without inducer)?
Answer: >256 µg/mL

Question: What about the MIC ([14]; with inducer 100 μg/ml) of the same molecule?
Answer: 256 µg/mL (≈ 567 µM)

Question: And the MIC ([14]; without inducer)?
Answer: 256 µg/mL (≈ 567 µM)

Question: What about the MIC [15] of the same molecule?
Answer: 64 µg/mL (≈ 142 µM)

Question: And the MIC [16]?
Answer: 128 µg/mL (≈ 283 µM)

Question: What about the MIC [17] of the same molecule?
Answer: 8 to 64 µg/mL

Question: What about the MIC [18] of the same molecule?
Answer: 16 µg/mL (≈ 35.4 µM)

Question: And the “inhibition of growth at 64 μg/ml in Nutrient Broth” value [19]?
Answer: inhibited

Question: What about the MIC [20] of the same molecule?
Answer: 32 µg/mL (≈ 70.8 µM)
